Assay results as given in patent US20210060320A1, “TRANSDERMAL DRUG DELIVERY SYSTEM AND METHOD FOR USING SAME” (NICHIBAN CO., LTD., priority 2017, published 2021).

Conditions: pH 8
Source text: Note that in the present invention, as an index of the “water solubility” in a “water-soluble drug” or a “water-soluble steroid”, a distribution coefficient (octanol/water distribution coefficient) can be employed. The distribution coefficient can be expressed by log D by taking into consideration of the influence of pH, and the water solubility is indicated by a minus value, while the liposolubility lipophilicity is indicated by a plus value.
The distribution coefficient can be obtained in accordance with the method described in JIS Z7260-107 or […].

| Substance | distribution coefficient (log D) |
| --- | --- |
| dexamethasone metasulfobenzoate sodium | −2 |
| prednisolone sodium phosphate | 0 |
